# In patent publication US20250041380A1, “R[…] FOR SARS-COV2 DISEASE” (priority 2021, published 2025):
# Where two headings read alike, the source gives them in different places.
# Experiments:
# Immune cells (THP-1) = assay type: cell-based, Human
# Lung cells (A549) = assay type: cell-based, Human
smiles,measurement,setting,value
CCN(CCO)CCCC(C)Nc1ccnc2cc(Cl)ccc12 (centres unmarked) [Hydroxychloroquine sulphate],Inhibition of IL-6,Immune cells (THP-1); 0.1 µM,90.7%
same,Inhibition of IL-8,Immune cells (THP-1); 0.1 µM,23.2%
same,Inhibition of IL-6,Immune cells (THP-1); 1 µM,83.9%
same,Inhibition of IL-8,Immune cells (THP-1); 1 µM,36.8%
same,Inhibition of IL-6,Immune cells (THP-1); 5 µM,94.2%
same,Inhibition of IL-8,Immune cells (THP-1); 5 µM,53.4%
same,Inhibition of IL-6,Immune cells (THP-1); 10 µM,84.5%
same,Inhibition of IL-8,Immune cells (THP-1); 10 µM,53.5%
same,Inhibition of IL-6,Immune cells (THP-1); 20 µM,100.0%
same,Inhibition of IL-8,Immune cells (THP-1); 20 µM,36.1%
same,Inhibition of IL-6,Lung cells (A549); 0.1 µM,34.7%
same,Inhibition of IL-8,Lung cells (A549); 0.1 µM,54.4%
same,Inhibition of IL-6,Lung cells (A549); 1 µM,53.4%
same,Inhibition of IL-8,Lung cells (A549); 1 µM,40.8%
same,Inhibition of IL-6,Lung cells (A549); 5 µM,66.5%
same,Inhibition of IL-8,Lung cells (A549); 5 µM,56.7%
same,Inhibition of IL-6,Lung cells (A549); 10 µM,60.7%
same,Inhibition of IL-8,Lung cells (A549); 10 µM,44.0%
same,Inhibition of IL-6,Lung cells (A549); 20 µM,71.4%
same,Inhibition of IL-8,Lung cells (A549); 20 µM,65.0%
